Laboratory results: US20240116921A1, “LACTAM (HETERO)[…] DERIVATIVES AS INHIBITORS OF ERBB2” (EnLiven Therapeutics, Inc., priority 2020, published 2024)
Structures can show the parent of a compound that is named as a salt. Where two headings read alike, the source gives them in different places.

Experiments:
[1] = test system: BT-474; experiment: Cell viability assay (CellTiter Glo), BT-474; type: cell-based; conditions: Homo sapiens, read-out: IC50, cell viability, BT-474
[2] = target: T1, phosphorylated EGFR (pEGFR) (Homo sapiens, UniProt P00533); experiment: Detection of phosphorylated EGFR (pEGFR) in EGF-stimulated A431 cells; type: cell-based; conditions: A431 cells (10% FBS), 4 hours incubation, EGF 30 ng/mL 10 minutes, AlphaLISA
T1 construct: performed to measure phosphorylated EGFR levels using A431 cells (10% FBS); endogenous in cells; host or cells: A431
How it was run: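 A431 cells in 10% FBS were preincubated with compound for 4 h at 37 °C, then stimulated with EGF (30 ng/mL final) for 10 min. pEGFR in lysates was read by AlphaLISA. % inhibition was calculated against DMSO and staurosporine-treated controls, and IC50 came from a four-parameter curve fit.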

[3] = target: T2, phosphorylated ERBB2 (pERBB2) (Homo sapiens, UniProt P04626); experiment: Detection of phosphorylated ERBB2 (pERBB2) by ELISA in BT-474 cells; type: cell-based; conditions: four hours incubation
T2 construct: endogenous in cells; host or cells: BT-474
How it was run: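 BT-474 cells (2.0×10^4/well) treated 4 h at 37 °C, 5% CO2 with compounds in four-fold dilutions from 10 µM to 0.01 nM. Lysate pERBB2 measured by ELISA with TMB read at 450 nm; % relative activity scaled between no-cell wells and 0.1% DMSO-treated cells.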

[4] = test system: A431; experiment: Cell viability assay (CellTiter Glo), A431; type: cell-based; conditions: Homo sapiens, A-431, A431 cells, 72 hours
[5] = target: Ba/F3 ERBB2 A775_G776insYVMA (Homo sapiens, UniProt P04626, DUP772-775, cells depend on it); experiment: Cell viability assay, Ba/F3 ERBB2 A775_G776insYVMA; type: cell-based, mouse; conditions: 72 hours, CellTiter Glo
How it was run: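 IL-3-independent Ba/F3 lines stably expressing the human ERBB2 insertion mutants were seeded at 3000 cells/well and exposed to compounds for 72 h at 37 °C, 5% CO2. Viability was read as ATP by CellTiter-Glo luminescence. Curves were fitted by sigmoidal nonlinear regression.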

[6] = test system: MDA-MB-175VII; experiment: Cell viability assay (CellTiter Glo), MDA-MB-175VII; type: cell-based; conditions: Homo sapiens, MDA-MB-175-VII, 72 h, read-out: IC50, cell viability, MDA MB 175VII
Description: Cells were treated with compounds, and cell viability was measured as a metric of kinase inhibition.
The Ba/F3 cell line is IL-3-dependent mouse cell line derived from the C3H mouse strain. Ba/F3 cell lines were engineered to express human ERBB2 or EGFR kinases, rendering the cells IL-3 independent. The lines were generated via retroviral transduction utilizing a Moloney murine leukemia virus (MMLV) promoter, and constructs are stably integrated into the cell genome. The sequences of the ERBB2 and EGFR genes used were NCBI Reference Sequences NM_004448.3 and NM_005228.3, respectively.
Similarly, Ba/F3 cell lines engineered to express EGFR, ERBB2, or ERBB2 mutants were grown, harvested, counted and seeded at 3000 cells per well in 96-well plates. A subset of wells contained media only (low control, “LC”).
Table B1 provides the growth media and number of cells seeded per well for the each cell line.
Plates were placed in a 37° C., 5% CO2 incubator for 72 hours. Plates were then removed from the incubator and equilibrated for 15 minutes at room temperature. 40 μl of CellTiter Glo reagent (Promega) was added to measure the relative level of metabolically active cells by quantifying intracellular ATP concentrations. Plates were incubated for 30 minutes at room temperature, and luminescence was measured. Percent viability was normalized to a vehicle control only using the following formula: % viability=100×(Lumsample−LumLC)/(LumHC−Lum^LC). Graphical curves were fitted using a nonlinear regression model with a sigmoidal dose response.

[7] = BT-474 cells, 72 hours, CellTiter Glo
[8] = Ba/F3 ERBB2 A775_G776insYVMA cells, Tables B2-B4, read-out: IC50, cell viability, Ba/F3 ERBB2 A775_G776insYVMA
[9] = Ba/F3 ERBB2 YVMA cells, cell viability, Table B5, read-out: Ba/F3 ERBB2 YVMA, IC50

T2 sequence (P04626 23-1255): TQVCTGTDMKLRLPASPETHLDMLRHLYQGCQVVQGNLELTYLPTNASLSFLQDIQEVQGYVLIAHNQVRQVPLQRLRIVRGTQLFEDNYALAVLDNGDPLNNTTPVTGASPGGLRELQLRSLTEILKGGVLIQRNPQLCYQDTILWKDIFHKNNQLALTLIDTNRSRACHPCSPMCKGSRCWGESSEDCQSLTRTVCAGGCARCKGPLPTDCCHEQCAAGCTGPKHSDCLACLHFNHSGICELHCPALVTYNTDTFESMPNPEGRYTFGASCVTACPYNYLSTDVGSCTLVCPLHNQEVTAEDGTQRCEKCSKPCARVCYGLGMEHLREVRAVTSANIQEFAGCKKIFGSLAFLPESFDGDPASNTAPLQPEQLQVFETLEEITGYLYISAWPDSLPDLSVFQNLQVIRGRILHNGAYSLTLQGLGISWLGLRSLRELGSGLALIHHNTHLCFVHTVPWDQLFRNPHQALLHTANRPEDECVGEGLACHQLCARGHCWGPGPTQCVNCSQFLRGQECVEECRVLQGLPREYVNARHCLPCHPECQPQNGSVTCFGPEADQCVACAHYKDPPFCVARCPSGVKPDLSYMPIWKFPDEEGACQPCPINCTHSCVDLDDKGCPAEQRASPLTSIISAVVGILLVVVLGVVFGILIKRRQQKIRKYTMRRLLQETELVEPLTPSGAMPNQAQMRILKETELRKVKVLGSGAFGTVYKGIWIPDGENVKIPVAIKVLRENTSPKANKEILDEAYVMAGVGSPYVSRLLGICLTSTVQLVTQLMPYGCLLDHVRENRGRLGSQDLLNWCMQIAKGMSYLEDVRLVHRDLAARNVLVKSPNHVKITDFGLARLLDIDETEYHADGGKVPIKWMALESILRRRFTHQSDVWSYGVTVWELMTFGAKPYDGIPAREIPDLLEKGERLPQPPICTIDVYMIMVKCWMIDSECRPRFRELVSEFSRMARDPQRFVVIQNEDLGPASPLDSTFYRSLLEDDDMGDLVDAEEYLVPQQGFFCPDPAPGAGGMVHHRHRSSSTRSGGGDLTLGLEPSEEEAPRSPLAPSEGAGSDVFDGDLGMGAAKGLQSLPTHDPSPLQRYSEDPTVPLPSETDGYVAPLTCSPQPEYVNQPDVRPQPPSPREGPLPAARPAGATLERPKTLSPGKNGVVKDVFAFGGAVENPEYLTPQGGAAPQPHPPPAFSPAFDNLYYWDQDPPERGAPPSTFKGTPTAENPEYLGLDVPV
T1 sequence (P00533 25-1210): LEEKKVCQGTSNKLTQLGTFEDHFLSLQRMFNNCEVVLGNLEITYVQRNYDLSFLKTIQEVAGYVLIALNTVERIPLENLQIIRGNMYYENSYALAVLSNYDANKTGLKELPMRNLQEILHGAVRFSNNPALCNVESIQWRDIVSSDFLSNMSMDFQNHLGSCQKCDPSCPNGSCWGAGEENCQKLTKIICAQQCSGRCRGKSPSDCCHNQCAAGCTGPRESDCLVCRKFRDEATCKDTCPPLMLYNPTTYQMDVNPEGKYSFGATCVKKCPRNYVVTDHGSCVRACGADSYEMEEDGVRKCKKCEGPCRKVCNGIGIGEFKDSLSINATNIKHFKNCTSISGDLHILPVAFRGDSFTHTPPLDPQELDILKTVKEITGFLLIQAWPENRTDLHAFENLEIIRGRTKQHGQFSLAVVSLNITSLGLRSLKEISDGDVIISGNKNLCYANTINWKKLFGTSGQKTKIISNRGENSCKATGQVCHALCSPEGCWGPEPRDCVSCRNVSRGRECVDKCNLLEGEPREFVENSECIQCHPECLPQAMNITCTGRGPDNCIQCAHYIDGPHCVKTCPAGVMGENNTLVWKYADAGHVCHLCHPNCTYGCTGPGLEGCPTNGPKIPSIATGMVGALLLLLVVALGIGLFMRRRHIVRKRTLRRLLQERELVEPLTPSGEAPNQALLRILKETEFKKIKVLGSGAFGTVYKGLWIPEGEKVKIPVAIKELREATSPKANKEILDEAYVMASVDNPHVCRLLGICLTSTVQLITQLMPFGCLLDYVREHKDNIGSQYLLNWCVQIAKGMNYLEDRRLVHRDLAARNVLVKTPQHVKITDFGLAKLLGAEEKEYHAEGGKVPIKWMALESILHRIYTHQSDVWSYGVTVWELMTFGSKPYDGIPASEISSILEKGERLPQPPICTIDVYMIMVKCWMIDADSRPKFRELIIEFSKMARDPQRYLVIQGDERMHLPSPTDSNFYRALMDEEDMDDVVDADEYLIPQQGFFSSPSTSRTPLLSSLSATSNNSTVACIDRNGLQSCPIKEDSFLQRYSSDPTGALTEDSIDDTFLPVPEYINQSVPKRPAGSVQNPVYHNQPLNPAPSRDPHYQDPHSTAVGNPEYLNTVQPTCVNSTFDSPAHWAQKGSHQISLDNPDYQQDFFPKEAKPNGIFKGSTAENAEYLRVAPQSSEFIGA
Chain of Ba/F3 ERBB2 A775_G776insYVMA (P04626 with tags, fused parts or gaps DUP772-775): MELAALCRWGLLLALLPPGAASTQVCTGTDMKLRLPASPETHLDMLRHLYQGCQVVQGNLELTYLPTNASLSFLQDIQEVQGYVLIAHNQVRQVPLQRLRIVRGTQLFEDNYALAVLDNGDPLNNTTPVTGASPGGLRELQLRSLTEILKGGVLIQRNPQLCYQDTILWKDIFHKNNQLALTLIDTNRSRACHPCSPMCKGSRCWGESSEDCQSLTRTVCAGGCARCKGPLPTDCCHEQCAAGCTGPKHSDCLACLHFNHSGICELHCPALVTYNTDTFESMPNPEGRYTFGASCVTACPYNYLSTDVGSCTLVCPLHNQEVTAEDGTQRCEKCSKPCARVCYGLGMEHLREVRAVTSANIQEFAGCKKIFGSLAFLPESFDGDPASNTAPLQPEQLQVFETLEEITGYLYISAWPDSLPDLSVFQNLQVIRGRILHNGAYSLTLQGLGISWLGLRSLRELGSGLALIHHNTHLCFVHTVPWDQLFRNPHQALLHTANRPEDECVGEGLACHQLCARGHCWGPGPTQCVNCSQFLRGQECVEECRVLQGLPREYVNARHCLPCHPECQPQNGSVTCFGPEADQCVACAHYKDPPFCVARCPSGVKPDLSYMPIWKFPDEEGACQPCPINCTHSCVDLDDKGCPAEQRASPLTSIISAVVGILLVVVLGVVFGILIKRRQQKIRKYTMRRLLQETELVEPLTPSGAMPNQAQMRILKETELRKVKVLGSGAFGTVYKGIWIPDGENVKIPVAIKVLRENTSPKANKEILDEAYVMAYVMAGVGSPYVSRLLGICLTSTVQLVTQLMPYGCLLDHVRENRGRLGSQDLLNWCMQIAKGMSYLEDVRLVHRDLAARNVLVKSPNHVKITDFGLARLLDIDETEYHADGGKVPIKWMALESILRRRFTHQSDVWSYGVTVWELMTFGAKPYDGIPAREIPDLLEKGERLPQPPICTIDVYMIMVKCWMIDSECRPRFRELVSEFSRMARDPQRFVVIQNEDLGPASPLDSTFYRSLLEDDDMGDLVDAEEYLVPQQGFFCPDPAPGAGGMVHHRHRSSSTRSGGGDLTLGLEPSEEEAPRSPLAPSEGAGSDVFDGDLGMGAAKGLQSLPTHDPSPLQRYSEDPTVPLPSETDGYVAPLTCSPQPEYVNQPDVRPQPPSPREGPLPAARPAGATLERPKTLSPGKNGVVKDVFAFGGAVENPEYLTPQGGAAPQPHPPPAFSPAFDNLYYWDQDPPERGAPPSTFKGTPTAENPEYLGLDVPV

IC50 [1, 7] | IC50 [2] | IC50 [3] | IC50 [4] | SMILES | GI50 [5, 8] | GI50 [5, 9] | IC50 ([1]; BT-474, 72 h) | IC50 [6]
44.7 nM |  |  | > 10000 nM | C=C1CCN(c2ccc3ncnc(Nc4ccc(Cc5ccn6ncnc6c5)cc4)c3c2)C1=O [Compound 9, 3-methylidene-1-[4-[(4-[[1,2,4]triazolo[1,5-a]pyridin-7-ylmethyl]phenyl)amino]quinazolin-6-yl]pyrrolidin-2-one] |  |  |  | 
27.1 nM |  |  | 673 nM | C=C1CCN(c2ccc3ncnc(Nc4ccc(Oc5ccn6ncnc6c5)c(Cl)c4)c3c2)C1=O [Compound 10, 1-[4-[(3-chloro-4-[[1,2,4]triazolo[1,5-a]pyridin-7-yloxy]phenyl)amino]quinazolin-6-yl]-3-methylidenepyrrolidin-2-one] |  |  |  | 
7670 nM |  |  | 6510 nM | C=C1CCN(c2ccc3ncnc(Nc4ccc(Oc5ccn6ncnc6c5)c(F)c4)c3c2)C1=O [Compound 11, 1-[4-[(3-fluoro-4-[[1,2,4]triazolo[1,5-a]pyridin-7-yloxy]phenyl)amino]quinazolin-6-yl]-3-methylidenepyrrolidin-2-one] |  |  |  | 
20.4 nM |  |  | 7650 nM | C=C1CCN(c2ccc3ncnc(Nc4ccc(Oc5ccn(C(F)F)c(=O)c5)c(C)c4)c3c2)C1=O [Compound 12, 1-(difluoromethyl)-4-(2-methyl-4-[[6-(3-methylidene-2-oxopyrrolidin-1-yl)quinazolin-4-yl]amino]phenoxy)pyridin-2-one] | 113 nM |  |  | 
4.32 nM | 3800 nM | 26.9 nM |  | C=C1CCN(c2ccc3ncnc(Nc4ccc(Oc5ccn6ncnc6c5)c(C)c4F)c3c2)C1=O [Compound 14, 1-[4-[(2-fluoro-3-methyl-4-[[1,2,4]triazolo[1,5-a]pyridin-7-yloxy]phenyl)amino]quinazolin-6-yl]-3-methylidenepyrrolidin-2-one] |  |  |  | 
3.27 nM | 1250 nM | 8.15 nM |  | C=C1CCN(c2ccc3ncnc(Nc4cc(C)c(Oc5ccn6ncnc6c5)cc4F)c3c2)C1=O [Compound 15, 1-[4 [(2-fluoro-5-methyl-4-[[1,2,4]triazolo[1,5-a]pyridin-7-yloxy]phenyl)amino]quinazolin-6-yl]-3-methylidenepyrrolidin-2-one] | 245 nM |  |  | 
4.67 nM | 235 nM | 9.15 nM |  | C=C1CCN(c2ccc3ncnc(Nc4ccc(Cc5ccn6ncnc6c5)c(C)c4)c3c2)C1=O [Compound 16, 1-[4-[(3-methyl-4-[[1,2,4]triazolo[1,5-a]pyridin-7-ylmethyl]phenyl)amino]quinazolin-6-yl]-3-methylidenepyrrolidin-2-one] | 169 nM |  |  | 
3.73 nM | > 9640 nM | 7.52 nM |  | Cc1cc(Nc2ncnc3ccc(N4CC/C(=C\CN(C)C)C4=O)cc23)ccc1Oc1ccn2ncnc2c1 [Compound 18, (E)-1-(4-(4-([1,2,4]triazolo[1,5-a]pyridin-7-yloxy)-3-methylphenylamino)quinazolin-6-yl)-3-(2-(dimethylamino)ethylidene)pyrrolidin-2-one hydrochloride] | 77.1 nM |  |  | 
 | 331 nM | 17.9 nM |  | Cc1cc(Nc2ncnc3cnc(N4CC/C(=C\CN(C)C)C4=O)cc23)ccc1Oc1cncc(F)c1 [Compound 155, (3E)-3-[2-(dimethylamino)ethylidene]-1-[4-({4-[(5-fluoropyridin-3-yl)oxy]-3-methylphenyl}amino)pyrido[3,4-d]pyrimidin-6-yl]pyrrolidin-2-one] |  | 35.4 nM |  | 
 | 7760 nM | 21.7 nM |  | CN(C)C/C=C1\CCN(c2ccc3ncnc(Nc4ccc(Oc5ccn6ncnc6c5)cc4F)c3n2)C1=O [Compound 156, (E)-1-(4-((4-([1,2,4]triazolo[1,5-a]pyridin-7-yloxy)-2-fluorophenyl)amino)pyrido[3,2-d]pyrimidin-6-yl)-3-(2-(dimethylamino)ethylidene)pyrrolidin-2-one] |  | 23.3 nM |  | 

The remaining lines, values behind:

SMILES | IC50 [1, 7] | IC50 [2] | IC50 [3] | IC50 [4] | GI50 [5, 8] | GI50 [5, 9] | IC50 ([1]; BT-474, 72 h) | IC50 [6]
C=C1C(=O)N(c2ccc3ncnc(Nc4ccc(Oc5ccn6ncnc6c5)c(C)c4)c3c2)CC12CC2 [Compound 2, 5-[4-[(3-methyl-4-[[1,2,4]triazolo[1,5-a]pyridin-7-yloxy]phenyl)amino]quinazolin-6-yl]-7-methylidene-5-azaspiro[2.4]heptan-6-one] | 19.5 nM | > 10000 nM | 75.9 nM |  |  |  |  | 
C=C1CCN(c2ccc3ncnc(Nc4ccc(Oc5ccn(C)c(=O)c5)c(C)c4)c3c2)C1=O [Compound 5, 1-methyl-4-(2-methyl-4-[[6-(3-methylidene-2-oxopyrrolidin-1-yl)quinazolin-4-yl]amino]phenoxy)pyridin-2-one] | 27.8 nM |  |  | > 10000 nM | 236 nM |  |  | 
C=C1CCN(c2ccc3ncnc(Nc4ccc(Oc5cnc(C)cn5)c(C)c4)c3c2)C1=O [Compound 6, 1-[4-([3-methyl-4-[(5-methylpyrazin-2-yl)oxy]phenyl]amino)quinazolin-6-yl]-3-methylidenepyrrolidin-2-one] | 16.1 nM |  |  | > 6520 nM | > 1000 nM |  |  | 
C=C1CCN(c2ccc3ncnc(Nc4ccc(Oc5ccn6ncnc6c5)c(C)c4)c3c2F)C1=O [Compound 7, 1-[5-fluoro-4-[(3-methyl-4-[[1,2,4]triazolo[1,5-a]pyridin-7-yloxy]phenyl)amino]quinazolin-6-yl]-3-methylidenepyrrolidin-2-one] | 31.7 nM |  | 109 nM | > 10000 nM | > 1000 nM |  |  | 
C=C1CCN(c2ccc3ncnc(Nc4ccc(Cc5ccc(C)nc5)cc4)c3c2)C1=O [Compound 8, 3-methylidene-1-[4-([4-[(6-methylpyridin-3-yl)methyl]phenyl]amino)quinazolin-6-yl]pyrrolidin-2-one] | 52.9 nM |  |  | 7500 nM |  |  |  | 
CCOc1cc2ncc(C#N)c(Nc3ccc(OCc4ccccn4)c(Cl)c3)c2cc1NC(=O)/C=C/CN(C)C [Neratinib, neratinib, reference compound] |  |  |  |  |  |  | 2.2 nM | 7.1 nM
